In patent US20260097043A1, “NOVEL FORMULATIONS AND VEHICLES” (WisTa Laboratories Ltd., priority 2022, published 2026):

What was measured:
TDP-43 = details: 0.05 μM MT; SH-SY5Y cells; Yamashita et al 2009; cited from earlier work
[1] = tested on: huntingtin derivative containing a polyglutamine stretch of 102 residues; details: tested at 0, 10 and 100 μM; zebrafish; van Bebber et al. 2010; cited from earlier work
[2] = 4 mg twice weekly; prior-filed PCT/EP2023/064369; cited from earlier work
[3] = assay type: in vivo, human; details: 4 mg MTC approximately twice weekly; MCI to moderate AD
Description: Prior-filed PCT/EP2023/064369 (Example 3) describes the structure of a phase 3 clinical trial in mild to moderate AD in which different arms of participants were treated with MTC and LMTM respectively. This was a Phase 3, randomized, double-blind, outpatient trial to evaluate the safety, efficacy, and tolerability of LMTM in participants with severity ranging from mild cognitive impairment (MCI) to moderate AD. The MTC minipill was intended as a urinary discolourant placebo (in combination with a true placebo i.e. a blank minipill lacking any MTC or LMTM). […] Of patients receiving MTC 4 mg twice weekly, the majority (85%) were unexpectedly found to have blood levels of active drug above the threshold needed to produce a clinical effect.

[4] = Baddeley et al., 2015, cited from earlier work

CN(C)c1ccc2nc3ccc(N(C)C)cc3[s+]c2c1 [MT, N3,N3,N7,N7-tetramethylphenothiazin-5-ium-3,7-diamine]
reduction of the number of TDP-43 aggregates (TDP-43): 50% | formation of huntingtin polyglutamine aggregates [1]: prevented the formation of such aggregates in zebrafish in a dose dependent manner

CN(C)c1ccc2nc3ccc(N(C)C)cc3[s+]c2c1 [MTC, 3,7-bisdimethylaminophenazothionium chloride]
therapeutic benefits in treating Alzheimer's disease [2]: showed therapeutic benefits | clinical benefit [3]: showed clinical benefit

CN(C)c1ccc2c(c1)Sc1cc(N(C)C)ccc1N2 [LMTM, leuco-methylthioninium bis(hydromethanesulfonate)]
pharmaceutic properties (solubility and pKa) [4]: superior pharmaceutic properties in terms of solubility and pKa | absorption limitations ([4]; compared with the MT+ form): not subject to the absorption limitations of the MT^+ form
